Results from ChEMBL document CHEMBL4808234, “Substituent effects of cyclic naphthalene diimide on G-quadruplex binding and the inhibition of cancer cell growth” (Bioorg Med Chem Lett, 2021).
Active and inactive are the calls of the source. No cut-off for these calls is given here.

How the values were obtained:
[1] = molecular target: Telomerase reverse transcriptase (Homo sapiens) (UniProt O14746); assay: Inhibition of telomerase in human A549 cell lysate using TA-core (5'-TAGGGTTAGGGTTAGGGTTAGGG-3') and Rev21G (5'-TCT CGT CTF CCC TAA-3') as primer by PCR stop assay; type: subcellular
Ca9-22 [2] = assay: Growth inhibition of human Ca9-22 cells incubated for 24 hrs by CCK8 assay; type: functional, cell-based
[3] = Growth inhibition of human NHEK cells incubated for 24 hrs by CCK8 assay; type: tissue-based
Bone marrow cell [4] = assay: Growth inhibition of human Bone marrow cell incubated for 24 hrs by CCK8 assay; type: cell-based
Ca9-22 [5] = assay: Growth inhibition of human Ca9-22 cells at 0.1 uM incubated for 24 hrs by CCK8 assay; type: functional; conditions: read-out: GI
[6] = Growth inhibition of human NHEK cells at 0.1 uM incubated for 24 hrs by CCK8 assay; type: tissue-based; conditions: read-out: GI
Bone marrow cell [7] = assay: Growth inhibition of human Bone marrow at 0.1 uM cell incubated for 24 hrs by CCK8 assay; type: cell-based
Quadruplex DNA [8] = assay: Binding affinity to TA-core G4 DNA 5'-TAGGGTTAGGGTTAGGGTTAGGG-3' (unknown origin) assessed as association constant at equilibrium measured under dilution conditions by isothermal titration calorimetry; type: nucleic-acid assay; conditions: Homo sapiens
Quadruplex DNA [9] = assay: Binding affinity to TA-core G4 DNA 5'-TAGGGTTAGGGTTAGGGTTAGGG-3' (unknown origin) assessed as change in enthalpy measured under dilution conditions by isothermal titration calorimetry; type: nucleic-acid assay; conditions: Homo sapiens
Quadruplex DNA [10] = assay: Binding affinity to TA-core G4 DNA 5'-TAGGGTTAGGGTTAGGGTTAGGG-3' (unknown origin) assessed as change in entropy measured under dilution conditions by isothermal titration calorimetry; type: nucleic-acid assay; conditions: Homo sapiens
Quadruplex DNA [11] = assay: Binding affinity to TA-core G4 DNA 5'-TAGGGTTAGGGTTAGGGTTAGGG-3' (unknown origin) assessed as Gibbs free energy change measured under dilution conditions by isothermal titration calorimetry; type: nucleic-acid assay; conditions: Homo sapiens
Quadruplex DNA [12] = assay: Binding affinity to TA-core G4 DNA 5'-TAGGGTTAGGGTTAGGGTTAGGG-3' (unknown origin) assessed as association constant at equilibrium measured under molecular crowding conditions by isothermal titration calorimetry; type: nucleic-acid assay; conditions: Homo sapiens
Quadruplex DNA [13] = assay: Binding affinity to TA-core G4 DNA 5'-TAGGGTTAGGGTTAGGGTTAGGG-3' (unknown origin) assessed as change in enthalpy measured under molecular crowding conditions by isothermal titration calorimetry; type: nucleic-acid assay; conditions: Homo sapiens
Quadruplex DNA [14] = assay: Binding affinity to TA-core G4 DNA 5'-TAGGGTTAGGGTTAGGGTTAGGG-3' (unknown origin) assessed as change in entropy measured under molecular crowding conditions by isothermal titration calorimetry; type: nucleic-acid assay; conditions: Homo sapiens
Quadruplex DNA [15] = assay: Binding affinity to TA-core G4 DNA 5'-TAGGGTTAGGGTTAGGGTTAGGG-3' (unknown origin) assessed as Gibbs free energy change measured under molecular crowding conditions by isothermal titration calorimetry; type: nucleic-acid assay; conditions: Homo sapiens
Quadruplex DNA [16] = assay: Binding affinity to c-myc G4 DNA 5'-TGAGGGTGGGGAGGGTGGGGAA-3' (unknown origin) assessed as association constant at equilibrium measured under molecular crowding conditions by isothermal titration calorimetry; type: nucleic-acid assay; conditions: Homo sapiens
Quadruplex DNA [17] = assay: Binding affinity to c-myc G4 DNA 5'-TGAGGGTGGGGAGGGTGGGGAA-3' (unknown origin) assessed as change in enthalpy measured under molecular crowding conditions by isothermal titration calorimetry; type: nucleic-acid assay; conditions: Homo sapiens
Quadruplex DNA [18] = assay: Binding affinity to c-myc G4 DNA 5'-TGAGGGTGGGGAGGGTGGGGAA-3' (unknown origin) assessed as change in entropy measured under molecular crowding conditions by isothermal titration calorimetry; type: nucleic-acid assay; conditions: Homo sapiens
Quadruplex DNA [19] = assay: Binding affinity to c-myc G4 DNA 5'-TGAGGGTGGGGAGGGTGGGGAA-3' (unknown origin) assessed as Gibbs free energy change measured under molecular crowding conditions by isothermal titration calorimetry; type: nucleic-acid assay; conditions: Homo sapiens
Quadruplex DNA [20] = assay: Binding affinity to c-myc G4 DNA 5'-TGAGGGTGGGGAGGGTGGGGAA-3' (unknown origin) assessed as association constant at equilibrium measured under dilution conditions by isothermal titration calorimetry; type: nucleic-acid assay; conditions: Homo sapiens
Quadruplex DNA [21] = assay: Binding affinity to c-myc G4 DNA 5'-TGAGGGTGGGGAGGGTGGGGAA-3' (unknown origin) assessed as change in enthalpy measured under dilution conditions by isothermal titration calorimetry; type: nucleic-acid assay; conditions: Homo sapiens
Quadruplex DNA [22] = assay: Binding affinity to c-myc G4 DNA 5'-TGAGGGTGGGGAGGGTGGGGAA-3' (unknown origin) assessed as change in entropy measured under dilution conditions by isothermal titration calorimetry; type: nucleic-acid assay; conditions: Homo sapiens
Quadruplex DNA [23] = assay: Binding affinity to c-myc G4 DNA 5'-TGAGGGTGGGGAGGGTGGGGAA-3' (unknown origin) assessed as Gibbs free energy change measured under dilution conditions by isothermal titration calorimetry; type: nucleic-acid assay; conditions: Homo sapiens
Quadruplex DNA [24] = assay: Binding affinity at TA-core G4 DNA 5'-TAGGGTTAGGGTTAGGGTTAGGG-3' (unknown origin) assessed as circular dichroism changes up to 4.5 uM by spectrophotometric method; type: nucleic-acid assay; conditions: Homo sapiens; dose microM <=4.5
Quadruplex DNA [25] = assay: Binding affinity at c-myc G4 DNA 5'-TGAGGGTGGGGAGGGTGGGGAA-3' (unknown origin) assessed as circular dichroism changes up to 4.5 uM by spectrophotometric method; type: nucleic-acid assay; conditions: Homo sapiens; dose microM <=4.5
Quadruplex DNA [26] = assay: Binding affinity at TA-core G4 DNA 5'-TAGGGTTAGGGTTAGGGTTAGGG-3' (unknown origin) assessed as change in melting temperature by circular dichroism spectrophotometric method; type: nucleic-acid assay; conditions: Homo sapiens

Chain of Telomerase reverse transcriptase (Homo sapiens) (O14746 whole entry): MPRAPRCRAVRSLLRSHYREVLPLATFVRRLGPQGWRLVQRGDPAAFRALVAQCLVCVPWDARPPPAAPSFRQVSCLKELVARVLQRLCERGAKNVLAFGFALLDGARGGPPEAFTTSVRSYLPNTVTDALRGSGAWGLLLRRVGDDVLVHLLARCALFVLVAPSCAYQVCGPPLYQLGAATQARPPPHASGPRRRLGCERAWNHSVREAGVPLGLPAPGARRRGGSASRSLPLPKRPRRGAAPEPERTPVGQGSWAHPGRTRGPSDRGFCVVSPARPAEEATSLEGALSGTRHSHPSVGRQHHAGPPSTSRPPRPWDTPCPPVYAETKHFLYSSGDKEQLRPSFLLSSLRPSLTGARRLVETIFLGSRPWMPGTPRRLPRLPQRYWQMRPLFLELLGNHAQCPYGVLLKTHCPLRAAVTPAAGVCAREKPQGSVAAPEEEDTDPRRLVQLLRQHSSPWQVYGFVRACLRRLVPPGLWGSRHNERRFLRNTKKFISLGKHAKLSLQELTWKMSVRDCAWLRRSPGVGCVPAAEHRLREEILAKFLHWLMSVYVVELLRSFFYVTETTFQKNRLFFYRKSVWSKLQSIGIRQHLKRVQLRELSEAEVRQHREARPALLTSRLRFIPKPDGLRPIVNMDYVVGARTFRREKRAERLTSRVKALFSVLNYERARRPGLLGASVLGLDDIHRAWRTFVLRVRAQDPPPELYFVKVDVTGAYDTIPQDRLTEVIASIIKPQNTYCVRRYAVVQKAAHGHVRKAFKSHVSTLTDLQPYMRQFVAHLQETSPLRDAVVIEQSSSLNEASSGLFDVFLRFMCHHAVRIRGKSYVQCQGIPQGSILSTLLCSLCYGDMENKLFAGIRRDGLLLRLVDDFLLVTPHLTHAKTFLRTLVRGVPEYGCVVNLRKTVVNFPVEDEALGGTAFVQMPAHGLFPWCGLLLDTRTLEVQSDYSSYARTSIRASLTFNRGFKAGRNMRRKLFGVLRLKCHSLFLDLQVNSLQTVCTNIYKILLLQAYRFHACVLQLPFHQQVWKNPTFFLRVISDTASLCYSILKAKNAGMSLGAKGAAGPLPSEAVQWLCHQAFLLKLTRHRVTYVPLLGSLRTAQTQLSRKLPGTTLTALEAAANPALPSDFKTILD

inhibition [1]	Ka (Quadruplex DNA [8])	deltaH (Quadruplex DNA [9])	-TdeltaS (Quadruplex DNA [10])	deltaG (Quadruplex DNA [11])	Ka (Quadruplex DNA [12])	deltaH (Quadruplex DNA [13])	-TdeltaS (Quadruplex DNA [14])	deltaG (Quadruplex DNA [15])	Ka (Quadruplex DNA [16])	deltaH (Quadruplex DNA [17])	-TdeltaS (Quadruplex DNA [18])	deltaG (Quadruplex DNA [19])	Ka (Quadruplex DNA [20])	deltaH (Quadruplex DNA [21])	-TdeltaS (Quadruplex DNA [22])	deltaG (Quadruplex DNA [23])	Activity (Quadruplex DNA [24])	Activity (Quadruplex DNA [25])	SMILES	Activity (Ca9-22 [2])	other results
Active	1.5e+06 M⁻¹	-13 kcal/mol	4.4 kcal/mol	-8.6 kcal/mol	600000 M⁻¹	-43 kcal/mol	35 kcal/mol	-7.9 kcal/mol	700000 M⁻¹	-20 kcal/mol	12 kcal/mol	-8 kcal/mol	6.2e+06 M⁻¹	-14 kcal/mol	4.7 kcal/mol	-9.3 kcal/mol	Active	Active	CN1CCCNC(=O)CC2(CCCCC2)CC(=O)NCCCN(C)CCCN2C(=O)c3ccc4c5c(ccc(c35)C2=O)C(=O)N(CCC1)C4=O	Active	Activity [3]: Non-Toxic; Activity (Bone marrow cell [4]): Non-Toxic; inhibition of growth at 0.1 µM (Ca9-22 [5]): > 70%; inhibition at 24 h, 0.1 µM [6]: 40%; Activity (Bone marrow cell [7]): Non-Toxic; ΔTm (Quadruplex DNA [26]): 10 °C
Active	3.4e+06 M⁻¹	-8.5 kcal/mol	-0.4 kcal/mol	-8.9 kcal/mol	1.9e+06 M⁻¹	-22 kcal/mol	14 kcal/mol	-8.6 kcal/mol	1.6e+06 M⁻¹	-20 kcal/mol	12 kcal/mol	-8.5 kcal/mol	1.1e+06 M⁻¹	-11 kcal/mol	2.9 kcal/mol	-8.1 kcal/mol	Active	Active	CN1CCCNC(=O)CCCC(=O)NCCCN(C)CCCN2C(=O)c3ccc4c5c(ccc(c35)C2=O)C(=O)N(CCC1)C4=O	Active	ΔTm (Quadruplex DNA [26]): 10 °C
Active	1.7e+06 M⁻¹	-11 kcal/mol	2.5 kcal/mol	-8.5 kcal/mol	700000 M⁻¹	-29 kcal/mol	21 kcal/mol	-8 kcal/mol	400000 M⁻¹	-48 kcal/mol	41 kcal/mol	-7.6 kcal/mol	2.6e+06 M⁻¹	-11 kcal/mol	2.3 kcal/mol	-8.7 kcal/mol	Active	Active	CN1CCCNC(=O)CC(C)(C)CC(=O)NCCCN(C)CCCN2C(=O)c3ccc4c5c(ccc(c35)C2=O)C(=O)N(CCC1)C4=O	Active	ΔTm (Quadruplex DNA [26]): 10 °C
Active	2.2e+06 M⁻¹	-9 kcal/mol	0.36 kcal/mol	-8.6 kcal/mol	700000 M⁻¹	-35 kcal/mol	27 kcal/mol	-8 kcal/mol	800000 M⁻¹	-53 kcal/mol	45 kcal/mol	-8 kcal/mol	2.4e+06 M⁻¹	-10 kcal/mol	1.3 kcal/mol	-8.7 kcal/mol	Active	Active	CN1CCCNC(=O)c2cccc(c2)C(=O)NCCCN(C)CCCN2C(=O)c3ccc4c5c(ccc(c35)C2=O)C(=O)N(CCC1)C4=O	Active	ΔTm (Quadruplex DNA [26]): 10 °C
